From publication PMC12391474 (Scientific Reports, 2025) come the findings set out here.

This test concerns the target T1, Fibrinogen (FB) (Bos taurus, UniProt P02672+P02676+P12799).
T1 sequence (P02672 20-615): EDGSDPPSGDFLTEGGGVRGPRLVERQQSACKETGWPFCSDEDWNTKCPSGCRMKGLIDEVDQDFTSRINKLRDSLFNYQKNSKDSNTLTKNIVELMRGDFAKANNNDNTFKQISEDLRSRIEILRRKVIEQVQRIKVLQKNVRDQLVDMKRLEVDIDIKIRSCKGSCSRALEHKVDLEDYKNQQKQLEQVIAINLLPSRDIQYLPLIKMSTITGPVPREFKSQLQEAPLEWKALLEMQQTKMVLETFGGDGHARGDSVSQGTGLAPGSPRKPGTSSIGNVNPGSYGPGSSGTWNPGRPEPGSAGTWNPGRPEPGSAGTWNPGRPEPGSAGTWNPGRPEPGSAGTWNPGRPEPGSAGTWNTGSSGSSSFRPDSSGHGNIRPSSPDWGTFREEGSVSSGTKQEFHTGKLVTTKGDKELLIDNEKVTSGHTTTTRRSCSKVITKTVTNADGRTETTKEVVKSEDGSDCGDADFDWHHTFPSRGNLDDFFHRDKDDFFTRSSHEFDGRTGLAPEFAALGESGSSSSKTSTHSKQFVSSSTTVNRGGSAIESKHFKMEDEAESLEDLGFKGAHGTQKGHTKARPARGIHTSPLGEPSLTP
T1 sequence (P02676 1-468): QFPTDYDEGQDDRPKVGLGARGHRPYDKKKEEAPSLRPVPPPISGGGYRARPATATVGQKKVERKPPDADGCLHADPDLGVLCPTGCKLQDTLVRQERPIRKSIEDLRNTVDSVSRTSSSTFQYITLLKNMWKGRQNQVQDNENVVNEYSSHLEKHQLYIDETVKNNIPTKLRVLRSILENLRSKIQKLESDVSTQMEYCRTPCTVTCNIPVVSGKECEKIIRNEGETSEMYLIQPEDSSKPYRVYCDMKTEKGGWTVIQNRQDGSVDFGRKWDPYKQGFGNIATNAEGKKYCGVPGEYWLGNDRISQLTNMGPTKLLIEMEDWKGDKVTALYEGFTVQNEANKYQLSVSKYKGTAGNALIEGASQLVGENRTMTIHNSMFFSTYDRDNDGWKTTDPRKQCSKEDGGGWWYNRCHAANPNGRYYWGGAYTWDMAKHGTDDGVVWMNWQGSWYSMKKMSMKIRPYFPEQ
T1 sequence (P12799 25-444): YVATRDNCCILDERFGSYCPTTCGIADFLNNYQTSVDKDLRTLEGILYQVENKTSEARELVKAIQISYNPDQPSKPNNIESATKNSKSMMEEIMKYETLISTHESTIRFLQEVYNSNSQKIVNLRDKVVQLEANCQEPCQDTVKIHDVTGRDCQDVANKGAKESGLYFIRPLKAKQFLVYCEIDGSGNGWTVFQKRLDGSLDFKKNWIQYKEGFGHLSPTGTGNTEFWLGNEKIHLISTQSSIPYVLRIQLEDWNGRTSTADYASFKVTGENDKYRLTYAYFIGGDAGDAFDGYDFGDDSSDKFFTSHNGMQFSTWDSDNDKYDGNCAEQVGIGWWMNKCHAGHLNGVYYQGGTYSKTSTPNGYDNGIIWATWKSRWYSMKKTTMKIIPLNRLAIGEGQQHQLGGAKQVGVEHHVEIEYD
As to the kind of experiment: intrinsic fluorescence quenching titration. Format: binding.

Counter-ions that a name gives are not always drawn.

The compound `CC(C)(C)NC[C@H](O)COc1nsnc1N1CCOCC1` [TM, Timolol maleate] had a Kd of 1650 µM.
